# Experiments:
# SN12C cells [1] = assay: Apoptosis (Caspase 3/7-Glo), SN12C; format: cell-based, human; conditions: 72 h
# Experimental: (§1) Apoptosis was determined using Caspase 3/7-Glo assay kit (Promega) following the manufacturer's instructions. Briefly, 2000 cells per well were plated in 96 well plates and cultured for 72 h. […] Caspase 3/7 activity was measured using a luminometer. Luminescence values were normalized by cell numbers.
# ACHN cells [2] = assay: Redox homeostasis (p-AMPK, NADPH, GSSG/GSH, ROS); format: cell-based, human; conditions: 2 μM CYT387, 10 μM MK2206, 24 hr
# Experimental: ROS levels were measured with Cellrox Deep Red (Molecular Probes). Cell were plated in a 96 well clear bottom with black sides cell culture plate. […] The complete media+drug was removed after 24 hours and replaced with 5 μM of Cellrox Deep Red in media. Cells were incubated for 30 min at 370 C then washed with PBS. Fluorescence signal was detected using a Bioteck Cytation 5 plate reader. Data was analyzed using Prism software.
# [3] = system: Atg5+/+ murine embryonic fibroblasts; assay: Lipid droplet number in Atg5+/+ MEFs; format: cell-based, mouse; conditions: 24 hr
# Experimental: (§2) Cells were grown on coverslips then treated with drug for 24 hours. Cells were fixed in 4% paraformaldehyde for 15 min, rinsed with PBS. Cells were washed with a 1% saponin solution for 15 min at room temperature then washed several times in PBS to remove detergent. Cells were then incubated in Bodipy (ThermoFisher #D3922) at a final concentration of 1 uM for 10 min. Bodipy was removed and slides were rinsed with PBS then air dried and mounted on slides using Dako mounting media with Dapi.
# SN12C cells [4] = assay: Cell viability (CellTiter-Glo), SN12C; format: cell-based, human; conditions: 3 days
# Experimental: Cell viability assays were performed by plating 2000 cells/well in 96-well plates in triplicate and treating the following day with the indicated agent. The experiment was continued for 3 days and then cell viability was determined using CellTiter-Glo assay kit (Promega). The assay was measured using a luminometer. […] Experimental results are the average of at least three independent experiments.
# [5] = system: PI3K, mTORC1 and mTORC2 signaling; assay: Western blotting of PI3K-AKT-mTOR signaling; format: cell-based, human; conditions: added to CYT387
# Experimental: Cells were plated in 6 well dishes and treated the following day with the indicated agents. Treatments were for 24 hours, after which cells were washed with ice cold PBS and lysed with RIPA buffer (Sigma). Phosphatase inhibitor cocktail set II and protease inhibitor cocktail set III (EMD Millipore) were added at the time of lysis. Lysates were centrifuged at 15,000 g×10 min at 4 degrees C. Protein concentrations were calculated based on a BCA assay (Thermo Scientific) generated standard curve. Proteins were resolved using the NuPAGE Novex Mini Gel system on 4% to 12% Bis-Tris Gels (Invitrogen). For western blotting, equal amounts of cell lysates (15-20 μg of protein) were resolved with SDSPAGE, and transferred to membranes. The membrane was probed with primary antibodies, washed, and then incubated with corresponding fluorescent secondary antibodies and washed. The fluorescent signal was captured using LI-COR (Lincoln, Nebr.) Odyssey Imaging System, and fluorescent intensity was quantified using the Odyssey software where indicated. The following antibodies were used for Western blots: p-S6 (S240/244), S6, LC3B, p-Akt(S473), p-Akt(T308), Akt, cleaved caspase3 (Cell Signaling Technologies). p-Stat3 (Y705), Stat3 and β-actin (AC15) (Abcam). Ki67 (Dako) and cleaved caspase3 (Cell Signaling Technologies) were used for immunohistochemistry. […] BX795 and GDC0941 were purchased from Sigma.
# glycolysis = assay: Glucose uptake and lactate excretion as readouts for glycolysis; format: cell-based, human
# Source text: The PI3K-AKT-mTOR pathway regulates multiple steps in glucose uptake and metabolism.
# SN12C xenografts = assay: SN12C xenograft study; format: in vivo; conditions: SN12C; CYT387 50 mg/kg/day or MK2206 60 mg/kg/day oral gavage
# Experimental: (§3) 6-week old mice were utilized for human renal cell carcinoma xenografts. For both ACHN and SN12C cell lines 2×10^6 cells were diluted in 50 μl of PBS and 50 μl of Matrigel (BD Biosciences) and were injected subcutaneously into the right and left flank of each mouse. Tumors were monitored until they reached an average size of 50-80 mm3 (approximately 2 weeks), at which point treatments were begun. […] MK2206 (60 mg/kg/day) were administered by oral gavage 2-3 day/week. […] Tumors and mouse weights were measured twice weekly. At least 6-8 mice per treatment group were included. All mice were euthanized using CO2 inhalation followed by cervical dislocation per institutional guidelines at Oregon Health and Science University. Experiments were approved by the Institutional Animal Care and Use Committee at OHSU.
# (§4) Immunostaining was performed following deparaffinization and rehydration of slides. Antigen retrieval was performed in a pressure cooker using citrate buffer (pH 6.0) for 4 min. Nonspecific binding was blocked using Vector mouse IgG blocking serum 30 min at room temperature. Samples were incubated at room temperature with rabbit monoclonal antibodies pS6 (CST #5364) cleaved caspase 3 (CST#9661), and Ki67 (Dako#M7240).
# Slides were developed with Vector Immpress rabbit IgG (#MP7401) and Vector Immpress mouse IgG (#MP7400) for 30 min at room temperature. Chromogenic detection was performed using Vector Immpact DAB (#SK4105) for 3 min. Slides were counterstained with hematoxylin. A 3DHistech MIDI Scanner (Perkin Elmer) was used to capture whole slide digital images with a 20× objective. […]
# Mouse tumor size was analyzed by 2-way ANOVA with time and drug as factors, using GraphPad Prism. Mouse weight during treatment was analyzed by repeated measures 2-way ANOVA, with time and drug as factors. […] Immunohistochemistry: P-values were calculated using one-way ANOVA, with Bonferroni's multiple comparison test. * denotes P<0.05, ** denotes P<0.01, and *** denotes P<0.001 throughout this disclosure. […]
# ACHN cells [6] = assay: Cellular respiration (XF96 Seahorse, ECAR and OCR); format: cell-based, human; conditions: XF-96 Extracellular Flux Analyzer
# Experimental: Oxygen consumption and extracellular acidification rates were carried out in a XF96 Seahorse Analyzer (Seahorse Bioscience, Billerica, Mass., USA). Cells were plated in the wells of 96-well plates (8×10^3 cells/well; XF96 plates, Seahorse Bioscience, North Billerica, Mass.) and incubated at 37° C. overnight. The next day, cells were treated with indicated drugs for 24 hours and then the medium was changed to XF Assay Medium and loaded with glucose, oligomycin, and 2-DG, respectively, as manufacture's recommendation.
# [7] = system: Atg5−/− murine embryonic fibroblasts; assay: Lipid droplet number in Atg5−/− MEFs; format: cell-based, mouse; conditions: ATG5 deficient, 24 hr
# Experimental: as §2
# ACHN cells [8] = assay: Lipid droplet staining (Bodipy 493/503), ACHN; format: cell-based, human; conditions: 24 hrs; p<0.001 vs control
# Experimental: as §2
# ACHN cells [9] = assay: Cell viability (CellTiter-Glo), ACHN; format: cell-based, human; conditions: ACHN, 3 days
# Experimental: Cell viability assays were performed by plating 2000 cells/well in 96-well plates in triplicate and treating the following day with the indicated agent. The experiment was continued for 3 days and then cell viability was determined using CellTiter-Glo assay kit (Promega).
# The assay was measured using a luminometer. […] Experimental results are the average of at least three independent experiments.
# ACHN cells [10] = assay: Apoptosis (Caspase 3/7-Glo), ACHN; format: cell-based, human; conditions: ACHN, 72 h
# Experimental: as §1
# ACHN xenografts = assay: ACHN xenograft study; format: in vivo
# Experimental: as §3, §4
# Slides were developed with Vector Immpress rabbit IgG (#MP7401) and Vector Immpress mouse IgG (#MP7400) for 30 min at room temperature. Chromogenic detection was performed using Vector Immpact DAB (#SK4105) for 3 min. Slides were counterstained with hematoxylin. A 3DHistech MIDI Scanner (Perkin Elmer) was used to capture whole slide digital images with a 20× objective. Images were converted to into MRXS files and computer graphic analysis was completed using inForm 1.4.0 Advanced Image Analysis Software (Perkin Elmer).
# Mouse tumor size was analyzed by 2-way ANOVA with time and drug as factors, using GraphPad Prism. Mouse weight during treatment was analyzed by repeated measures 2-way ANOVA, with time and drug as factors. A P value less than 0.05 was considered statistically significant. Immunohistochemistry: P-values were calculated using one-way ANOVA, with Bonferroni's multiple comparison test. * denotes P<0.05, ** denotes P<0.01, and *** denotes P<0.001 throughout this disclosure. Metabolite fold-changes were computed and visualized in Python script, using the openpyxl package (for importing Excel files) and the matplotlib package (for visualizing fold changes).
smiles,measurement,setting,value
NC1(c2ccc(-c3nc4ccn5c(=O)[nH]nc5c4cc3-c3ccccc3)cc2)CCC1 [MK2206],apoptosis (cleaved-caspase 3/7),SN12C cells [1],little or no effect on apoptosis
same,GSSG/GSH ratios,ACHN cells [2],maintains GSSG/GSH ratios
same,NADPH levels,ACHN cells [2],increases NADPH levels
same,ROS,ACHN cells [2],mitigates ROS
same,p-AMPK,ACHN cells [2],activates p-AMPK
same,LD numbers,[3],significantly increase LD numbers
same,proliferation (cell viability),SN12C cells [4],some anti-proliferative effects
same,effect on mTORC1 activity in cells treated with CYT387,[5],additive inhibitory effect on mTORC1 activity
same,lactate/glucose ratio in extracellular media,glycolysis; Control: 1.51,0.81
same,glucose uptake,"glycolysis; in vitro, 18FDG",significantly decreased glucose uptake
same,lactate production,"glycolysis; in vitro, culture media",reduced lactate production
same,antitumor effect of single agent,SN12C xenografts,exhibited antitumor effect
same,ECAR,ACHN cells [6],significantly reduced the ECAR
same,lipid droplets,[7],no increase in lipid droplets
same,number of lipid droplets,ACHN cells [8],increase in the number of lipid droplets
same,size of lipid droplets,ACHN cells [8],increase in the size of lipid droplets
same,proliferation (cell viability),ACHN cells [9],some anti-proliferative effects
same,apoptosis (cleaved-caspase 3/7),ACHN cells [10],little or no effect on apoptosis
same,antitumor effect of single agent,"ACHN xenografts; ACHN, CYT387 50 mg/kg/day or MK2206 60 mg/kg/day oral gavage",exhibited antitumor effect
same,number of adipophilin-positive LDs in tumors,"ACHN xenografts; treatment day 40, ACHN xenograft tumors, CYT387<MK2206<CYT387+MK2206, p=0.0046",significantly and incrementally increased

# Source: patent publication US20190142835A1, “INHIBITION OF AUTOPHAGY USING PHOSPHOLIPASE A2 INHIBITORS” (OREGON HEALTH & SCIENCE UNIVERSITY, priority 2017, published 2019)
